Measured values reported in the supplement of paper PMC10307832.

Experiments:
Assay in all cases: relative viability (nuclei count vs DMSO), 5 days (fraction); higher = more cells survive
CUDC-101 + Foretinib = compound: C#Cc1cccc(Nc2ncnc3cc(OC)c(OCCCCCCC(=O)NO)cc23)c1 [CUDC-101] + COc1cc2c(Oc3ccc(NC(=O)C4(C(=O)Nc5ccc(F)cc5)CC4)cc3F)ccnc2cc1OCCCN1CCOCC1 [Foretinib] (partner 0.25 µM)
How it was run: (§1)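 A single step with final 0.05% Triton X-100, 1% formaldehyde and 1 ug/ml Hoechst fixed the cells and stained nuclei 5 days after treatment. Lung cancer cell lines in 1536-well plates had been treated by pin tool the day after seeding with one drug alone or a fixed anchor-drug dose plus five library-drug doses (not always all listed) in √10 steps, and nuclei were counted on 4× images. Relative viability is the ratio of nuclei in treated wells to nuclei in vehicle wells, taken as the median of duplicate plates.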

CUDC-101 + AZD7762 = compound: C#Cc1cccc(Nc2ncnc3cc(OC)c(OCCCCCCC(=O)NO)cc23)c1 [CUDC-101] + NC(=O)Nc1cc(-c2cccc(F)c2)sc1C(=O)N[C@H]1CCCNC1 [AZD7762] (partner 0.2 µM)
How it was run: as §1

[1] = compound: C1=CC=C2C(=C1)N=C(S2)C(C#N)C3=NC(=NC=C3)NCCC4=CN=CC=C4 + O=C(c1cc(Cc2n[nH]c(=O)c3ccccc23)ccc1F)N1CCN(C(=O)C2CC2)CC1 [Olaparib] (partner 8 µM)
How it was run: as §1

Vandetanib + Foretinib = compound: COc1cc2/c(=N/c3ccc(Br)cc3F)nc[nH]c2cc1OCC1CCN(C)CC1 [Vandetanib] + COc1cc2c(Oc3ccc(NC(=O)C4(C(=O)Nc5ccc(F)cc5)CC4)cc3F)ccnc2cc1OCCCN1CCOCC1 [Foretinib] (partner 0.25 µM)
How it was run: as §1

Row | Cell Line | relative viability (CUDC-101 + Foretinib; first compound 0.01 µM) | relative viability (CUDC-101 + Foretinib; first compound 0.03162 µM) | relative viability (CUDC-101 + Foretinib; first compound 0.1 µM) | relative viability (CUDC-101 + Foretinib; first compound 0.3162 µM) | relative viability (CUDC-101 + Foretinib; first compound 1 µM) | relative viability (CUDC-101 + AZD7762; first compound 0.01 µM) | relative viability (CUDC-101 + AZD7762; first compound 0.03162 µM) | relative viability (CUDC-101 + AZD7762; first compound 0.1 µM) | relative viability (CUDC-101 + AZD7762; first compound 0.3162 µM) | relative viability (CUDC-101 + AZD7762; first compound 1 µM) | relative viability ([1]; first compound 0.005 µM) | relative viability ([1]; first compound 0.01581 µM) | relative viability ([1]; first compound 0.05 µM) | relative viability ([1]; first compound 0.1581 µM) | relative viability ([1]; first compound 0.5 µM) | relative viability (Vandetanib + Foretinib; first compound 0.02 µM) | relative viability (Vandetanib + Foretinib; first compound 0.06325 µM) | relative viability (Vandetanib + Foretinib; first compound 0.2 µM) | relative viability (Vandetanib + Foretinib; first compound 0.6325 µM) | relative viability (Vandetanib + Foretinib; first compound 2 µM)
1 | NCI-H2170 | 0.978 | 0.973 | 1.05 | 0.995 | 0.903 | 1.07 | 0.839 | 0.819 | 0.892 | 0.723 | 0.592 | 0.686 | 0.621 | 0.598 | 0.458 | 1.04 | 0.57 | 1.06 | 0.978 | 1.03
2 | NCI-H2342 | 0.995 | 1.02 | 1.03 | 1.08 | 0.946 | 0.507 | 0.459 | 0.51 | 0.407 | 0.353 | 0.536 | 0.454 | 0.495 | 0.442 | 0.45 | 1.08 | 1.01 | 1.14 | 1.17 | 0.923
3 | NCI-H2347 | 0.888 | 0.948 | 0.902 | 0.99 | 0.689 | 0.934 | 0.653 | 0.697 | 0.791 | 0.569 | 0.607 | 0.611 | 0.627 | 0.642 | 0.525 | 1.01 |  | 0.789 | 1.02 | 0.553
4 | NCI-H2405 | 1.09 | 0.991 | 1.08 | 1.16 | 1.04 | 0.763 | 0.704 | 0.809 | 0.747 | 0.649 | 0.797 | 0.835 | 0.897 | 0.867 | 0.77 | 1.01 | 0.81 | 1.08 | 1.07 | 0.99
5 | NCI-H3122 | 1.02 | 0.973 | 0.908 | 0.943 | 0.769 | 0.998 | 0.951 | 1 | 1.04 | 1.06 | 0.671 | 0.655 | 0.691 | 0.788 | 0.885 | 0.984 | 0.972 | 0.888 | 0.944 | 0.94
6 | PC-3 [JPC-3] | 1.07 | 1 | 0.882 | 0.539 | 0.294 | 0.731 | 0.752 | 0.65 | 0.538 | 0.361 | 1.01 |  | 1.08 | 1.12 | 0.679 | 0.984 | 0.904 | 0.936 | 0.894 | 0.468
7 | PC-14 | 0.939 | 0.745 | 0.495 | 0.628 | 0.21 | 0.428 | 0.339 | 0.214 | 0.185 | 0.124 | 0.28 | 0.267 | 0.211 | 0.244 | 0.247 | 0.955 | 0.916 | 0.959 | 0.447 | 0.196
8 | RERF-LC-KJ | 0.884 | 0.889 | 0.791 | 0.812 | 0.644 | 1.01 | 0.971 | 1.18 | 0.922 | 0.608 | 0.923 | 0.993 | 0.895 | 0.97 | 0.44 | 0.875 | 0.951 | 0.904 | 0.882 | 0.937
9 | SW 900 | 0.761 | 0.629 | 0.738 | 0.885 | 0.716 | 0.57 | 0.476 | 0.568 | 0.716 | 0.555 | 0.65 | 0.755 | 0.838 | 0.938 | 0.87 | 0.927 | 0.779 | 0.143 | 1 | 0.917
